Measurements: patent publication US20090298752A1, “APLIDINE TREATMENT OF CANCERS” (PHARMA MAR, S.A., priority 1999, published 2009)
“Also recorded” adds a separate entry of the source.

Key:
AP-1 = experiment: gel retardation assay, transcription factor binding; type: biochemical; settings: nuclear extracts incubated with aplidine, 60 min
Procedure: Nuclear extracts were incubated with different aplidine concentrations and labelled oligonucleotides for 60 min. Using gel retardation assay the binding of HIF-1 or AP-1 has been monitored.

[1] = Phase I, 24 h infusion every 2 weeks: toxicity and pharmacokinetics; type: in vivo, human
Procedure: Aplidine is given as a 24 hour infusion every 2 weeks. The starting dose was 200 μg/m^2/d and dose escalation proceed including so far 400, 800, 1600, and 3200 μg/m^2/d. A total of 18 patients (M/F: 7/11, median age 52, OMS 0/1:10/8) have been entered. […] Among evaluable patients, toxicity consisted of mild grade I-II nausea/vomiting, grade I-II asthenia, and cramping occurring during or immediately after the infusion. No neuromuscular toxicity were reported at the evaluated doses. One patient with an advanced lung cancer and documented tumour progression at the dose of 1600 μg/m^2 developed a haemolytic anaemia and thrombocytopenia that was considered unlikely related to the study drug. […] An open 2-compartment model fits appropriately most plasma concentration profiles. […] The accrual is ongoing to determine the dose limiting toxicity and the dose to be recommended in phase II studies.
Aplidine was given to patients with solid tumour/NHL as a 24 hr infusion/q2w to 35 patients (median: age=51/ECOG=1) with solid tumour (32 pts) or NHL (3 pts). 23/35 patients were previously exposed to ≧3 previous lines of chemotherapy. Nine dose levels (200-7000 μg/m^2/w/q2w) and 65 cycles (120 infusions) were given. […] Toxicity consisted of G2-3 asthenia and emesis in 9-2 patients and 12-1 pts, respectively. G3 nausea/vomiting (≧5000 μg/m^2) was efficiently treated then prevented with 4HT3-regimens. […] At the dose of 5000 μg/m^2/w/q2w, 2 patients experienced transient muscle cramps with reversible G3 CPK-MM elevations. Among 9 patients treated at 6000 μg/m^2/w, 3 patients experienced an increase of CPK-MM and aldolase after the 3rd injection of aplidine. CPK elevations were G1-2 and not symptomatic in 2 patients but a G3 CPK elevation with G3 muscular pain and loss of muscle strength (DLT) was reported in 1 pt. This was reversible with no sequel. […] Ultrastructural electron microscopy indicated no morphological mitochondria alteration but a lost of the thick myosin filaments. At 7000 μg/m^2/q2w, 4 patients have been entered. […] Mechanistic hypothesis and preventive strategies against muscle toxicity are under evaluation.

B 16 melanoma = settings: mice; cited from earlier work
[2] = system: CT-1, CT-2 and HT-29 cell lines; settings: cited from earlier work
[3] = system: PC-3 prostate tumour cells; experiment: in vitro activity on prostate tumour cells; type: cell-based, human
Procedure: Different model systems were evaluated to provide the basis for further clinical work. Selective antitumour activities were seen against two histologically different solid tumours: human gastric and prostate carcinomas. Potent in vitro activity to primary gastric tumour specimens or Hs746T gastric tumour cells is evident with IC30 values of 146 and 450 pM, respectively. […] activities were evaluated in nude rodents using sc implanted tumour fragments or hollow fibres (HF) containing tumour cells.

[4] = 6000 μg/m^2/w, among 9 patients
[5] = 6000 mcg/m^2/2 wks, 12 patients

## aplidine
AP-1
  binding of AP-1 to consensus DNA sequence: does not block the binding; also recorded: did not change the ability
[1]; 5000 μg/m^2/w/q2w
  transient muscle cramps with reversible G3 CPK-MM elevations: 2 patients
[1]; [4]
  G3 CPK elevation with G3 muscular pain and loss of muscle strength (DLT): 1 pt
  increase of CPK-MM and aldolase after the 3rd injection: 3 patients
[1]; 2-compartment model, preliminary
  initial phase median half-life: 38.4 min
[1]; 2-compartment model, preliminary, 24 h infusion
  terminal phase median half-life: 25.8 h
[1]; 200 mcg/m^2/2 wks, 3 patients
  Nausea/vomiting G2 (worst toxicity per patient): 2
  Transaminitis G2 (worst toxicity per patient): 1
[1]; 400 mcg/m^2/2 wks, 3 patients
  Asthenia G2 (worst toxicity per patient): 2
  Hypertension G2 (worst toxicity per patient): 1
  Nausea/vomiting G2 (worst toxicity per patient): 1
[1]; 800 mcg/m^2/2 wks, 3 patients
  Flushing G1 (worst toxicity per patient): 1
  Muscle cramps G1 + G2 (worst toxicity per patient): 2
[1]; 1600 mcg/m^2/2 wks, 6 patients
  Asthenia G2 (worst toxicity per patient): 2
  Asthenia G3 (worst toxicity per patient): 1
  Muscle cramps G1 + G2 (worst toxicity per patient): 1
  Nausea/vomiting G2 (worst toxicity per patient): 4
  Transaminitis G3 (worst toxicity per patient): (1)
[1]; 3200 mcg/m^2/2 wks, 3 patients
  Asthenia G2 (worst toxicity per patient): 1
  Flushing G1 (worst toxicity per patient): 1
  Muscle cramps G1 + G2 (worst toxicity per patient): 2
  Muscle pain G2 (worst toxicity per patient): (1)
  Nausea/vomiting G3 (worst toxicity per patient): (1)
[1]; 4000 mcg/m^2/2 wks, 3 patients
  Asthenia G2 (worst toxicity per patient): 1
  Flushing G1 (worst toxicity per patient): 1
  Muscle cramps G1 + G2 (worst toxicity per patient): 2
  Muscle pain G1 (worst toxicity per patient): 2
  Nausea/vomiting G2 (worst toxicity per patient): 2
  Pain central catheter G2 (worst toxicity per patient): 2
[1]; 5000 mcg/m^2/2 wks, 3 patients
  Asthenia G3 (worst toxicity per patient): (1)
  CPK elevation G3 (worst toxicity per patient): (1)[1]
  CPK elevation G4 (worst toxicity per patient): (1)[1]
  Muscle cramps G1 + G2 (worst toxicity per patient): 2
  Muscle pain G1 (worst toxicity per patient): 1
  Muscle weakness G1 (worst toxicity per patient): 1
  Nausea/vomiting G2 (worst toxicity per patient): 1
  Transaminitis G2 (worst toxicity per patient): 1
[1]; [5]
  Asthenia G2 (worst toxicity per patient): 6
  CPK elevation G2 (worst toxicity per patient): 1(1)
  CPK elevation G3 (worst toxicity per patient): 1(1)
  Muscle cramps G1 + G2 (worst toxicity per patient): 1
  Muscle pain G1 (worst toxicity per patient): 1
  Muscle pain G2 (worst toxicity per patient): 2
  Muscle weakness G1 (worst toxicity per patient): 1(1)
  Muscle weakness G2 (worst toxicity per patient): 1(1)
  Nausea/vomiting G2 (worst toxicity per patient): 2
[1]; 7000 mcg/m^2/2 wks, 7 patients
  Asthenia G2 (worst toxicity per patient): 2
  CPK elevation G2 (worst toxicity per patient): 1
  Flushing G1 (worst toxicity per patient): 1
  Muscle pain G1 (worst toxicity per patient): 1
  Nausea/vomiting G2 (worst toxicity per patient): 1
  Neutrophenia G4 (worst toxicity per patient): 1
  Transaminitis G2 (worst toxicity per patient): 1
[1]; Example 6
  terminal half-life: 10 to 24 h
[1]; Example 6: 18 patients, 200-3200 μg/m^2/d
  dose limiting toxicity: no dose limiting toxicity
[1]; Example 14
  clearance: 332 ml/mm.m^2
  terminal half life: 15 to 35 h
[1]; Example 14, 35 patients
  G2 asthenia, patients: 9 patients
  G2 emesis, patients: 12 pts
  G3 asthenia, patients: 2 patients
  G3 emesis, patients: 1 pts
  cardiac toxicity: No cardiac toxicity
  haematologic toxicity: No haematiologic toxicity
[1]; Example 18, interpatient
  coefficient of variation of CL: 62%
[1]; Example 18, median, quartiles 15.7-35.0
  t ½: 23.8 h
[1]; Example 18, median, quartiles 192-415
  plasma CL: 252 mL/min/m^2
[1]; Example 18, median, quartiles 274-638
  Vss: 413 L/m^2
[1]; doses ≧3000 μg/m^2/q2w
  Plasma concentrations 24 h after the end of infusion, comparable to efficient in vitro concentrations: < 1 ng/mL
B 16 melanoma
  activity against implanted tumour: active
[2]
  cytotoxic activity: dose-dependent cytotoxic activity
[3]
  IC50: 3.4 nM
